From a melting point compilation (Tetko et al.; mined from patent text by program, amines drawn as free bases though some values may be those of a salt)

Row | melting point | SMILES
1 | 100 to 105 °C | Nc1ncnc2sc(Cc3ccccc3)c(-c3ccc(NS(=O)(=O)c4ccccc4)cc3)c12
2 | 83 to 85 °C | COC(=O)c1ccc(N)cc1C(=O)OC
3 | 180 to 181 °C | CC(C)S(=O)(=O)n1c(N)nc2ccc(C(=CCl)c3ccccc3)cc21
4 | 134 °C | CC(=O)NCc1cc(CCC(=O)O)no1
5 | 281 to 284 °C | CCOC(=O)Cn1c(C)c(-c2ccnc3cc(Cl)ccc23)c2cc(NC(C)=O)ccc21
6 | 250 to 252 °C | Clc1ccc2c(c1)Nc1ncccc1N=C2c1ccccc1
7 | 93 to 95 °C | COc1ccccc1N1C=C(C(Cl)(Cl)Cl)CN(C(Cl)(Cl)Cl)N1
8 | 170 to 171 °C | CS(=O)(=O)c1cccc(C(=O)Nc2cc(C(=O)NCc3ccccc3)ccn2)c1
9 | 157 to 158 °C | CCCc1[nH]c(C)c(C(C)=O)c1C
10 | 102 to 104 °C | COCOc1cccc(F)c1C=NO
11 | 124 °C | Cc1c(C(=O)Nc2ccc(N3CCCN(CCO)CC3)c(C#N)c2)cnn1-c1ccc(F)cc1
12 | 84 to 89 °C | CCC1(CC)C(=O)N(C(C)C)CC(C)(C)N1OC(C)(C)C#N
13 | 34 to 37 °C | CCCc1cc(C(=O)NC(C)(C)C)no1
14 | 81 °C | CCCCCc1ccc(-c2ccc(CCc3ccc(OCC)cc3)cc2)cc1
15 | 180 to 181 °C | COc1ccc(C(O)CNC(=O)C(N)=O)cc1OC1CCCC1 (stereo unspecified)
16 | 128 °C | COC(=O)C1C=CCN2C(=O)C(C)(CCOC3CCCCO3)C(=O)N12 (stereo unspecified)
17 | 133 to 134 °C | CCCCCS(=O)(=O)NC(=O)/C=C/c1ccc(OCCOC)cc1Oc1ncc(-c2ccccc2)cc1C
18 | 180 to 183 °C | Cn1c(C(F)(F)F)cc(=O)n(-c2c(F)cc(Cl)c3cc(C=O)oc23)c1=O
19 | 135 to 137 °C | O=c1[nH]c(=O)n(C2CC(O)C(CO)O2)cc1C#CI (stereo unspecified)
20 | 196 to 198 °C | CC(C)(CNS(=O)(=O)C(F)(F)F)Cn1c(=O)c2cccc3ncc(c1=O)n32
21 | 348 to 350 °C | COc1ccccc1-n1c(=O)[nH]c2c(C(N)=O)nc(-c3cccc(C(=O)O)c3)nc21
22 | 106 to 110 °C | CC(C)(C)OC(=O)CC(NC(=O)C1CCCN2C(=O)CCC(NC(=O)c3ccccc3)C(=O)N12)C(O)COCc1c(Cl)cccc1Cl (stereo unspecified)
23 | 63 to 66 °C | COc1ccc2sc(-c3ccc(OCCN4CCCC4)cc3)c(C(=O)c3ccc(OC4CCCCC4N4CCCCC4)cc3)c2c1 (stereo unspecified)
24 | 193 °C | Cn1c(=O)c(C(=O)NC2CCCCC2)c(O)c2cc(F)ccc21

Row | melting point | SMILES
25 | 77 to 78 °C | CC(C)Oc1ccc(CCCOc2cc(CCC(=O)O)n(C)n2)c(Oc2ncc(Cl)cc2Cl)c1
26 | 68 to 69 °C | Cc1cc(CCCOc2ccc(-c3noc(C(F)(F)F)n3)cc2)on1
27 | 82 to 85 °C | COC(=O)C(C)Oc1c(C#N)cnn1-c1ccc(C(F)(F)F)cc1Cl (stereo unspecified)
28 | > 300 °C | O=CN1CCN(c2ncc3c(=O)c(C(=O)O)c[nH]c3n2)CC1
29 | 291 to 300 °C | Cc1cccc(Cl)c1NS(=O)(=O)c1n[nH]c(NC=O)n1
30 | 221 to 222 °C | O=[N+]([O-])c1ccc(-c2ccc([N+](=O)[O-])c(Cl)c2)cc1Cl
31 | 88 to 89 °C | CCCCCCCCC(SCCCCCC)C(=O)Nc1c(OC)ccc2ncccc12 (stereo unspecified)
32 | 190 to 192 °C | COc1ccc(Cc2nccc3cc(O)ccc23)cc1OC
33 | 85 to 87 °C | COC(=O)[C@@H]1[C@H](c2ccccc2)N1S(=O)(=O)c1ccc(C)cc1 (stereo partly specified)
34 | 168 to 170 °C | CC(C)(CO)Cc1ccc(-c2ccc(CC(C)(C)CO)cc2)cc1
35 | 116 to 118 °C | CC(C(=O)Nc1ccc2[nH]c(=O)oc2c1)N1CCC(Cc2ccccc2)CC1 (stereo unspecified)
36 | 211 to 217 °C | Nc1ncccc1-c1nc2cc(-c3ccc(C(=O)O)o3)cnc2n1-c1ccc(CNC(=O)c2ccccc2)cc1
37 | 172 to 174 °C | COc1ccc(-c2cc3cc(Cl)cc(Cl)c3o2)cc1
38 | 235 to 255 °C | O=C1CN2C(=O)C(c3ccccc3)(c3ccccc3)c3cccc(c32)N1
39 | 204 °C | CCOc1ccc2[nH]c(=O)n(C3CCCCCC3)c2c1
40 | 93 to 94 °C | COc1ccc(SC2CC(=O)NC2=O)cc1 (stereo unspecified)
41 | 108 °C | CS(=O)(=O)N1CCN([C@@H](CNS(=O)(=O)c2ccc(OCc3ccc(C#N)cc3)cc2)C(=O)NO)CC1
42 | 156 to 158 °C | COc1ccc(Cn2nnc(-c3ccc(OC)c(C(=O)NCc4ccc(F)cc4)c3)n2)cc1
43 | 252 to 254 °C | COC(=O)c1ncc(N)nc1N
44 | 174 to 175 °C | C=C(C)c1c2c(c(C)c(C)c1N1CCN(c3ccc(OC)cc3)CC1)OC(C)(C)C2
45 | 62 to 66 °C | O=C(O)C(CC(=O)N1CCOCC1)Cc1cccc2ccccc12 (stereo unspecified)
46 | 263 °C | CCCC(CCNC(=O)C(C#N)=Cc1ccc(O)c(O)c1)NC(=O)C(C#N)=Cc1ccc(O)c(O)c1 (stereo unspecified)
47 | > 290 °C | Cc1[nH]c2ccccc2c1C1=C(c2c(C)[nH]c3ccccc23)C(=O)N(C)C1=O
48 | 67 to 68 °C | CC(=O)OC1Oc2ccc(OS(=O)(=O)N(C)C)cc2C1(C)C (stereo unspecified)

Row | melting point | SMILES
49 | 245 °C | O=C(O)c1cc(Br)cnc1O
50 | 168 °C | CC(C)(C)C(=O)Nc1ccccc1CC1NCCc2ccccc21 (stereo unspecified)
51 | 86 to 89 °C | CN1c2ccc(C=O)cc2CCC1c1ccccc1 (stereo unspecified)
52 | 156 °C | Clc1cc(Cl)cc(-c2cc[nH]n2)c1
53 | 151 to 153 °C | S=c1oc2ccccc2o1
54 | 115 °C | O=Cc1cc(Oc2c(Cl)cc(C(F)(F)F)cc2Cl)ccc1[N+](=O)[O-]
55 | 118 to 121 °C | N#CCc1ccc(-c2onc3ccccc23)cc1
56 | 198 °C | C(=C1CC(c2ccccc2)Cc2ccccc21)c1cncn1Cc1ccccc1 (stereo unspecified)
57 | 147 °C | COC(=O)C1=C(C)NC(C)=C(Cl)C1c1ccccc1 (stereo unspecified)
58 | 238 °C | O=C(Nc1cccc(S(=O)(=O)NCCc2ccncc2)c1)c1cnn2c(C(F)F)cc(-c3ccc(C(F)(F)F)cc3)nc12
59 | 89 to 90 °C | CCOC(=O)c1cccc(-c2ccc3c(c2)C(=O)CCC3)c1
60 | 77 to 78 °C | Nc1c(Cl)cc(Cl)c(-c2nsc(C(F)(F)F)c2Cl)c1Br
61 | 146 to 148 °C | COc1ccc2[nH]c(C)c(CC(N)=O)c2c1
62 | 88 to 89 °C | CC(=O)Oc1cc(OCC(OC(C)=O)c2ccc3c(c2)C(C)(C)CCC3(C)C)ccc1C(=O)O (stereo unspecified)
63 | > 275 °C | COC1CC(N)(C(=O)O)C2C(C(=O)O)C12 (stereo unspecified)
64 | > 300 °C | CCc1[nH]c(=O)c(C#N)cc1-c1ccncc1
65 | 123 to 124 °C | COc1ccc(-c2coc3ccc(-c4nnc(SCc5cccc(C)c5)o4)cc23)cc1
66 | 195 to 199 °C | NS(=O)(=O)c1cc2c(Cl)c(N3CCOCC3)ccc2s1
67 | 236 to 237 °C | COCCn1c(=O)[nH]c2ncc(-c3ccc(O)cc3)nc21
68 | 249 to 254 °C | CC(=O)NNc1c(C)cnc2c(NC(=O)c3c(Cl)cccc3Cl)cccc12
69 | 81 to 82 °C | COc1cc(OCc2ccccn2)ccc1C=CC(=O)CC(C)=O
70 | 247 to 249 °C | CC(C)(C)c1ccc2nc(N3CCN(c4ncccc4C(F)(F)F)CC3)[nH]c2c1
71 | 45 to 46 °C | COc1ccc(OCCCCCCCc2cc(C)no2)c(Cl)c1
72 | 174 to 175 °C | CC(=O)c1cccc(NC(=O)CCCC(=O)Nc2cccc(C(C)=O)c2)c1

Row | melting point | SMILES
73 | 155 to 157 °C | CCOCn1nccc1C(O)c1ccc(OC)c(Cl)c1Cl (stereo unspecified)
74 | 239 to 240 °C | O=C(Nc1nnco1)C1c2ccccc2Oc2ccccc21
75 | 161 to 163 °C | CCOC(=O)n1nc(-c2cc(C(C)(C)C)c(O)c(C(C)(C)C)c2)c2cccnc21
76 | 198 to 200 °C | COc1cccc(C=CC(=O)C2C(=O)CCC2=O)c1O
77 | 97 to 99 °C | CCCCCCCCCCCCCCCCCCOc1cc(OCc2ccccc2)cc(C(=O)O)c1
78 | 150 to 152 °C | Cc1c(NC(=O)CC(C)(C)C)c(C)c2c(c1-c1ccncc1)OCC2c1ccc(C(C)C)cc1 (stereo unspecified)
79 | 134 to 135 °C | CCOC(=O)c1cn(Cc2ccccc2)c2c(OC)c(F)c(F)c(N)c2c1=O
80 | 149 to 153 °C | O=C(NO)c1ccc2c(c1)CCN(C(=O)NCc1ccccc1)C2
81 | 88 to 91 °C | COC1C(O)C(CO)OC1n1cnc2c(NC3CCCCC3)ncnc21 (stereo unspecified)
82 | 206 °C | O=Cc1c(O)cccc1OCc1ccc(-c2nnn[nH]2)cc1
83 | 192 to 194 °C | CC(C)(C)CC(=O)Nc1ccc([N+](=O)[O-])cc1
84 | 89 to 90 °C | COCCOc1ccc(CCCNS(C)(=O)=O)c(Oc2ncc(C(F)(F)F)cc2Cl)c1
85 | 40 to 42 °C | CCCCC(CC)COC(=O)c1cccc(S(N)(=O)=O)c1 (stereo unspecified)
86 | > 300 °C | CCCCC(=O)Nc1ccc(-c2cc3[nH]c(=O)[nH]c3nc2C)cc1
87 | 238 to 240 °C | COc1ccc(-c2coc3cc(O)ccc3c2=O)c(OC)c1
88 | 65 to 105 °C | O=C(O)CCC(CC=Cc1cccc(Cl)c1)(C(=O)C=Cc1ccc(Cl)cc1)c1ccccc1 (stereo unspecified)
89 | 52 to 54 °C | COc1cccc(C=CC(=O)C=Cc2cccc(OC)c2)c1
90 | 157 to 158 °C | Cc1nc(-n2cnn(CC3CC3)c2=O)sc1C(=O)NCc1cocn1
91 | 89 to 90 °C | Nc1cccc(Nc2nccc(-c3cccnc3)n2)c1
92 | 83 °C | COc1ccc(COC(=O)c2cc(Br)nn2-c2ncccc2Cl)cc1
93 | 187 to 189 °C | O=S1(=O)C=C(N2CCCCC2)c2ccccc2O1
94 | 128 to 130 °C | CC(=O)NC1CCC(=O)c2ccccc21 (stereo unspecified)

Row | SMILES | melting point
95 | CCC(C)(C)NCC(O)c1ccc(O)c(O)c1OC (stereo unspecified) | 172 to 174 °C
96 | CCOC(=O)N[C@@H]1CC=C[C@@H]2CNC[C@H]21 (racemic) | 120 to 122 °C
97 | CN1C(=O)[C@H](NC(=O)CCC2CCCCC2)N=C(c2ccccc2)c2ccccc21 | 144 to 146 °C
98 | Cc1cc(NC(=O)C(C)(O)COc2cccc(C#N)c2)ccc1[N+](=O)[O-] (stereo unspecified) | 107 to 110 °C
99 | O=C1NCN(c2ccccc2)C12CCN(CCCOc1ccc(F)cc1Cl)CC2 | 154 to 155 °C
100 | CCCCCCCCCCCCCC[C@]1(C)OO[C@@H]2C[C@H]1CC(=O)[C@@H]2C | 46 °C
101 | COc1ccc(-c2nc(OC(=O)N(C)C)nn2-c2ccc(OC)cc2)cc1 | 121 to 123 °C
